Biological target: T1, FLuc-C-HiBiT (Photinus pyralis, UniProt P08659)
T1 construct: firefly luciferase with C-terminal HiBiT tag, E. coli expressed
Assay: biochemical
Conditions: enzyme activity, 10 uM ATP; read-out: IC50 or SDR50 (mM) / FLuc E

T1 sequence (P08659 whole entry, looked up): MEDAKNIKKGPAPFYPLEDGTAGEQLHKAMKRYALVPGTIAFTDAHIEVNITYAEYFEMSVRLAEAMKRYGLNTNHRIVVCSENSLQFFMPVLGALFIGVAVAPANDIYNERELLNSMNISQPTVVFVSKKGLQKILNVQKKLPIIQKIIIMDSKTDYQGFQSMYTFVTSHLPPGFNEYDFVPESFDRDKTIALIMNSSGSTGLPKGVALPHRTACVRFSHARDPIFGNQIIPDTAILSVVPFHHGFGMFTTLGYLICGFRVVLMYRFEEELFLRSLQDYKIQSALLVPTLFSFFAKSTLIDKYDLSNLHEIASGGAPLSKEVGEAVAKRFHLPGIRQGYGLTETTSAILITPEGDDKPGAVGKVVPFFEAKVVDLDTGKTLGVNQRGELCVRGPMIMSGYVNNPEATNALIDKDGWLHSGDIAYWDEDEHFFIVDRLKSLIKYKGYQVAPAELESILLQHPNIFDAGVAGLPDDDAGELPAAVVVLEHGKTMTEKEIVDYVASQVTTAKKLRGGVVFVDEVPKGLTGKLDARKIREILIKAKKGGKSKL

Row | SMILES | IC50 [mM]
1 | COc1ccc(N2CCN(C(=O)c3noc(-c4ccc(C)cc4)n3)CC2)cc1 [NCGC00447127-01] | 0.00989
2 | Cc1ccc(-c2nc(C(=O)N3CCN(c4ccccn4)CC3)no2)cc1 [NCGC00447133-01] | 0.00785
3 | Nc1nc(N2CCC3(CC2)NC(=O)CC3C(=O)O)c2nc[nH]c2n1 (centres unmarked) [NCGC00447244-01] | > 0.03
4 | c1ccc2cc(-c3nc(C4CCOC4)no3)ncc2c1 (centres unmarked) [NCGC00447332-01] | 0.0176
5 | CN(C)c1ccc(-c2nc(C3CCOC3)no2)cc1 (centres unmarked) [NCGC00447436-01] | 0.00989
6 | O=C1NCCCc2[nH]c(-c3cc(-c4cccc(F)c4)no3)nc21 [NCGC00447462-01] | 0.007
7 | Cn1nc(-c2ccc3c(c2)OCCO3)nc1N1CCCCC1 [NCGC00447616-01] | 0.00989
8 | CSc1ccc(-c2nc3c([nH]2)CC(C)(C)CNC3=O)cc1 [NCGC00448280-01] | 0.0124
9 | COc1cccc(-c2ccc(-c3nc(C4CCOC4)no3)o2)c1 (centres unmarked) [NCGC00448436-01] | 0.00989
10 | Cc1ccc(C2Cn3nnc(C(=O)N4CCC(C(=O)NCCc5ccccc5)CC4)c3CO2)cc1 (centres unmarked) [NCGC00449535-01] | 0.0111
11 | Cc1ccc(C2Cn3nnc(C(=O)N4CCC(C(=O)NCCc5cccs5)CC4)c3CO2)cc1 (centres unmarked) [NCGC00449541-01] | 0.00989
12 | Cc1ccc(C2Cn3nnc(C(=O)N4CCC(C(=O)NCc5ccncc5)CC4)c3CO2)cc1 (centres unmarked) [NCGC00449555-01] | 0.0111
13 | COCCNC(=O)C1CCN(C(=O)c2nnn3c2COC(c2ccc(C)cc2)C3)CC1 (centres unmarked) [NCGC00449559-01] | 0.00495
14 | CCCc1noc(-c2nc(-c3ccccc3F)no2)n1 [NCGC00450039-01] | 0.00989
15 | CCc1noc(-c2nc(-c3ccccc3F)no2)n1 [NCGC00450040-01] | 0.0157
16 | CC(C)c1noc(-c2nc(-c3ccc4c(c3)OCO4)no2)n1 [NCGC00450061-01] | 0.00785
17 | c1ccc(-c2noc(-c3nc(C4CC4)no3)n2)cc1 [NCGC00450069-01] | 0.00989
18 | CCc1noc(-c2nc(-c3ccccc3C)no2)n1 [NCGC00450081-01] | > 0.03
19 | Cc1ccc(-c2noc(-c3nc(C(C)C)no3)n2)cc1 [NCGC00450102-01] | 0.0111
20 | Cc1ccc(NC(=O)c2ccc3c(c2)N(C)C2CCCN2C3=O)cc1C (centres unmarked) [NCGC00452108-01] | 0.0124
21 | Cc1ccc(NC(=O)c2ccc3c(c2)N(C)C2CCCN2C3=O)cc1F (centres unmarked) [NCGC00452116-01] | 0.00881
22 | CN1c2cc(C(=O)Nc3ccc4c(c3)OCCO4)ccc2C(=O)N2CCCC21 (centres unmarked) [NCGC00452151-01] | 0.00785
23 | CN1c2cc(C(=O)Nc3cccc(F)c3)ccc2C(=O)N2CCCCCC21 (centres unmarked) [NCGC00452183-01] | 0.0124
24 | CCN1c2cc(C(=O)Nc3ccc4c(c3)OCCO4)ccc2C(=O)N2CCCCCC21 (centres unmarked) [NCGC00452264-01] | 0.00989

Row | SMILES | IC50 [mM]
25 | CCN1c2cc(C(=O)Nc3ccc(N(C)C)cc3)ccc2C(=O)N2CCCCC21 (centres unmarked) [NCGC00452497-01] | 0.0124
26 | CCN1c2cc(C(=O)Nc3ccc4c(c3)OCCO4)ccc2C(=O)N2CCCCC21 (centres unmarked) [NCGC00452503-01] | 0.00989
27 | O=C(CCCc1ccccc1)N1CCC2(CC1)CC(O)CCO2 (centres unmarked) [NCGC00452928-01] | 0.0124
28 | Cc1ccc(NC(=O)N2CCCC(c3noc(COc4ccccc4)n3)C2)cc1C (centres unmarked) [NCGC00453299-01] | 0.00881
29 | O=C(Nc1ccc2c(c1)OCCO2)N1CCC(c2nc(C3CCOCC3)no2)CC1 [NCGC00453474-01] | 0.0111
30 | CCc1ccccc1NC(=O)c1cc2c(=O)[nH]c(C)cn2n1 [NCGC00453924-01] | 0.0157
31 | Cc1cn2nc(C(=O)Nc3ccc(C(=O)NCCc4cccs4)cc3)cc2c(=O)[nH]1 [NCGC00453964-01] | 0.00881
32 | Cc1cn2nc(C(=O)Nc3ccc4c(c3)OCCO4)cc2c(N(C)Cc2ccccc2)n1 [NCGC00454161-01] | 0.00989
33 | CC(C)c1ccc(NC(=O)c2ccc(CN3C(=O)NC4(CCOCC4)C3=O)cc2)cc1 [NCGC00454608-01] | 0.00351
34 | CC(C)n1cnnc1CC1CCN(C(=O)Nc2ccc3c(c2)OCCO3)CC1 [NCGC00456228-01] | 0.00989
35 | O=C(c1cc(-c2ccc(F)cc2)nc2ccccc12)N1CCC(Cc2nncn2CC2CC2)CC1 [NCGC00456245-01] | 0.00881
36 | Cc1ccc(OCc2nc(C3CN(C(=O)c4n[nH]c5ccccc45)C3)no2)cc1 [NCGC00456269-01] | 0.00881
37 | CCC(C(=O)NCCn1ccn2nc(-c3ccc(OC)cc3)cc2c1=O)c1ccccc1 (centres unmarked) [NCGC00456905-01] | 0.0111
38 | COc1ccc(-c2cc3c(=O)n(CCNC(=O)c4ccco4)ccn3n2)cc1 [NCGC00456922-01] | 0.00989
39 | COc1ccc(-c2cc3c(=O)n(CCNC(=O)Cc4cccs4)ccn3n2)cc1 [NCGC00456924-01] | 0.00989
40 | COc1ccc(-c2cc3c(=O)n(CCNC(=O)c4cccc(N(C)C)c4)ccn3n2)cc1 [NCGC00456929-01] | 0.00351
41 | CCOc1ccc(-c2cc3c(=O)n(CCNC(=O)c4ccncc4)ccn3n2)cc1 [NCGC00456950-01] | 0.00351
42 | CCOc1ccc(-c2cc3c(=O)n(CCNC(=O)c4cccc5[nH]ccc45)ccn3n2)cc1 [NCGC00456956-01] | 0.00556
43 | COc1cccc(CC(=O)NCCn2ccn3nc(-c4ccc(C)cc4C)cc3c2=O)c1 [NCGC00456960-01] | 0.00881
44 | Cc1ccc(-c2cc3c(=O)n(CCNC(=O)c4cccnc4)ccn3n2)c(C)c1 [NCGC00456961-01] | 0.00989
45 | CC(=O)Nc1cccc(C(=O)NCCn2ccn3nc(-c4ccc(C)cc4C)cc3c2=O)c1 [NCGC00456962-01] | 0.00989
46 | COc1cccc(C(=O)NCCn2ccn3nc(-c4ccc(C)cc4C)cc3c2=O)c1OC [NCGC00456963-01] | 0.00989
47 | Cc1ccc(-c2cc3c(=O)n(CCNC(=O)c4ccc(C)s4)ccn3n2)c(C)c1 [NCGC00456966-01] | 0.007

Now from value to molecule:

Row | IC50 [mM] | SMILES
48 | 0.0124 | CC1CCC(NC(=O)c2noc(-c3ccccc3F)n2)CC1 (centres unmarked) [NCGC00447353-01]
49 | > 0.03 | CC(C)n1cnnc1CN(C)c1nc(N)nc2[nH]cnc12 [NCGC00449084-01]
50 | 0.00785 | Cc1ccc(C2Cn3nnc(C(=O)N4CCC(C(=O)NC5CC5)CC4)c3CO2)cc1 (centres unmarked) [NCGC00449485-01]
51 | 0.0111 | Cc1ccc(C2Cn3nnc(C(=O)N4CCC(C(=O)NCc5ccccn5)CC4)c3CO2)cc1 (centres unmarked) [NCGC00449551-01]
52 | 0.00989 | Cc1ccc(C2Cn3nnc(C(=O)N4CCC(C(=O)NCCN5CCCC5)CC4)c3CO2)cc1 (centres unmarked) [NCGC00449567-01]
53 | 0.0111 | Cc1ccc(C2Cn3nnc(C(=O)N4CCC(C(=O)Nc5ccccc5)CC4)c3CO2)cc1 (centres unmarked) [NCGC00449585-01]
54 | 0.0111 | Cc1ccc(C2Cn3nnc(C(=O)N4CCC(C(=O)Nc5ccc(F)cc5)CC4)c3CO2)cc1 (centres unmarked) [NCGC00449591-01]
55 | 0.00989 | CCc1noc(-c2nc(-c3ccc4c(c3)OCO4)no2)n1 [NCGC00450064-01]
56 | 0.0111 | CCN1c2cc(C(=O)Nc3ccc4c(c3)OCCO4)ccc2C(=O)N2CCCC21 (centres unmarked) [NCGC00452150-01]
57 | 0.0111 | CSc1cccc(NC(=O)c2ccc3c(c2)N(C)C2CCCN2C3=O)c1 (centres unmarked) [NCGC00452155-01]
58 | 0.0124 | CSc1ccc(NC(=O)c2ccc3c(c2)N(C)C2CCCN2C3=O)cc1 (centres unmarked) [NCGC00452166-01]
59 | 0.0111 | CN1c2cc(C(=O)Nc3ccccc3)ccc2C(=O)N2CCCCCC21 (centres unmarked) [NCGC00452190-01]
60 | 0.0176 | CN1c2cc(C(=O)Nc3cccc(Cl)c3)ccc2C(=O)N2CCCCCC21 (centres unmarked) [NCGC00452209-01]
61 | 0.0124 | CN1c2cc(C(=O)Nc3cc(F)ccc3F)ccc2C(=O)N2CCCCCC21 (centres unmarked) [NCGC00452248-01]
62 | 0.0124 | CN1c2cc(C(=O)Nc3ccccc3)ccc2C(=O)N2CCCCC21 (centres unmarked) [NCGC00452396-01]
63 | 0.0111 | CN(C)c1ccc(NC(=O)c2ccc3c(c2)N(C)C2CCCCN2C3=O)cc1 (centres unmarked) [NCGC00452413-01]
64 | 0.00989 | CN1c2cc(C(=O)Nc3ccc4c(c3)OCCO4)ccc2C(=O)N2CCCCC21 (centres unmarked) [NCGC00452420-01]
65 | 0.0157 | COC1CCOC2(CCN(C(=O)CCCc3ccccc3)CC2)C1 (centres unmarked) [NCGC00452766-01]

Row | IC50 [mM] | SMILES
66 | 0.00989 | O=C(c1cc(-c2ccc(F)cc2)nc2ccccc12)N1CCC(c2nc(C3CCOCC3)no2)C1 (centres unmarked) [NCGC00453669-01]
67 | 0.0111 | O=C(Nc1ccc2c(c1)OCCO2)N1CCC2(CC1)CC(N1CCCC1)CCO2 (centres unmarked) [NCGC00453772-01]
68 | 0.00989 | Cc1cn2nc(C(=O)Nc3ccc(C(=O)N4CCCC4)cc3)cc2c(=O)[nH]1 [NCGC00453923-01]
69 | 0.00989 | COc1ccc(NC(=O)c2cc3c(=O)[nH]c(C)cn3n2)cc1OC [NCGC00453925-01]
70 | 0.0111 | Cc1cn2nc(C(=O)NCCc3ccccc3)cc2c(=O)[nH]1 [NCGC00453944-01]
71 | 0.0111 | Cc1cn2nc(C(=O)Nc3ccc(N(C)C)cc3)cc2c(N2CCCC2)n1 [NCGC00454051-01]
72 | 0.00989 | CCc1cccc(NC(=O)c2cc(-c3ccc[nH]3)n[nH]2)c1 [NCGC00454482-03]
73 | 0.0111 | Cc1ccc(NC(=O)c2ccc(CN3C(=O)NC4(CCOCC4)C3=O)cc2)cc1C [NCGC00454605-01]
74 | 0.0111 | O=C(NCc1ccc2c(c1)OCO2)C1CCN(c2cc(C(F)(F)F)ncn2)CC1 [NCGC00455586-01]
75 | 0.00197 | Cc1ccc(-c2cc(C(=O)N3CCC(Cc4nncn4CC4CC4)CC3)c3ccccc3n2)cc1C [NCGC00456240-01]
76 | 0.00279 | CCn1cnnc1CC1CCN(C(=O)c2cc(-c3ccc(C)c(C)c3)nc3ccccc23)CC1 [NCGC00456253-01]
77 | 0.007 | COc1ccc(-c2cc3c(=O)n(CCNC(=O)c4c(F)cccc4Cl)ccn3n2)cc1 [NCGC00456907-01]
78 | 0.00495 | COc1ccc(-c2cc3c(=O)n(CCNC(=O)c4c(F)cccc4F)ccn3n2)cc1 [NCGC00456908-01]
79 | 0.0007 | CCOc1ccc(-c2cc3c(=O)n(CCNC(=O)c4cccc(C#N)c4)ccn3n2)cc1 [NCGC00456938-01]
80 | 0.00394 | CCOc1ccc(-c2cc3c(=O)n(CCNC(=O)c4cccc(N(C)C)c4)ccn3n2)cc1 [NCGC00456949-01]
81 | 0.00248 | Cc1ccc(-c2cc3c(=O)n(CCNC(=O)C4CCCCC4)ccn3n2)c(C)c1 [NCGC00456958-01]
82 | 0.00556 | Cc1ccc(-c2cc3c(=O)n(CCNC(=O)Cc4cccc(F)c4)ccn3n2)c(C)c1 [NCGC00456965-01]
83 | 0.00351 | COc1ccc(C(=O)NCCn2ccn3nc(-c4ccc(C)cc4C)cc3c2=O)cc1F [NCGC00456968-01]

— publication PMC12064818, “A general assay platform to study protein pharmacology using ligand-dependent structural dynamics” (Nature Communications, 2025)
